Here are results for ten molecules from PMC10303900, “Discovery of a New Chalcone-Trimethoxycinnamide Hybrid with Antimitotic Effect: Design, Synthesis, and Structure—Activity Relationship Studies” (Pharmaceuticals, 2023).

Like-named read-outs stand apart in the source and are kept apart here.

One series has as its system HCT116 (HCT116 p53+/+). The series is described as follows: SRB growth inhibition assay, colorectal carcinoma cells. It counts as cell-based. The note with it: Homo sapiens, HCT-116. The method, then:
(§1) A sulforhodamine B (SRB) assay was performed to evaluate the in vitro growth inhibitory activity of all synthesized hybrids, as well as intermediates in the human tumor cell lines of melanoma (A375-C5), breast adenocarcinoma (MCF-7), and colorectal carcinoma (HCT116), as well as on the non-tumor Human Pulmonary Alveolar Epithelial cell line (HPAEpiC). The concentration inducing 50% cell growth inhibition (GI50), was calculated. […] The overall results prompt us to further investigate the mechanism behind the cytotoxic activities of compounds 6, 7, and 13 in colorectal tumor cells. Moreover, in silico studies were performed, aiming to screen for drug-likeness.
(§2) A375-C5 (melanoma) and MCF-7 (breast adenocarcinoma) cell lines were obtained from the European Collection of Cell Culture, UK, and were grown in RPMI-1640 medium (Roswell Park Memorial Institute, Biochrom, Cambridge, UK) with 5% inactivated FBS (fetal bovine serum, Biochrom). HCT-116 (colon adenocarcinoma) cells were grown in DMEM medium (Dulbecco’s Modified Eagle’s, Biochrom) with 5% inactivated FBS. The non-tumor human pulmonary alveolar epithelial cells (HPAEpiC) were obtained from ScienCell Research Laboratories and grown in DMEM medium supplemented with 10% FBS and 1% non-essential amino acids (Sigma-Aldrich Co., Saint Louis, MO, USA). All cell lines were maintained in a humidified incubator (Hera Cell, Heraeus, Hanau, Germany) at 37 °C and with 5% CO2, and cell viability was regularly monitored using the exclusion trypan blue dye.
(§3) A total of 5.0 × 10^4 A375-C5, MCF-7, and HCT-116 cells, or 6.0 × 10^4 HPAEpiC cells were seeded in 96-well plates and incubated at 37 °C and 5% CO2 to allow for cell attachment. After 24 h, cells were treated with two-fold serial dilutions of test compounds (0–150 µM), or with DMSO as the compound solvent. In parallel, cells in a time-zero (T0) plate, without treatment, were fixed with 50% (m/v) trichloroacetic acid (TCA, Merck Millipore, Darmstadt, Germany), for 1 h at 4 °C, and then washed with distilled water and left to dry. Forty-eight hours after compound treatment, cells were fixed with 50% TCA and stained with SRB (Sigma-Aldrich Co., Ltd., Gillingham, UK) for 30 min at room temperature, followed by 5 rounds of washing with 1% (v/v) acetic acid (Merck Milli-pore, Darmstadt, Germany). SRB–protein complexes were then solubilized with […] Tris buffer (Sigma-Aldrich Co., Ltd., Gillingham, UK) for 30 min, and the absorbance was measured at 515 nm in a microplate reader (Biotek Synergy 2, BioTek Instruments, Inc., Winooski, VT, USA). A dose-response curve was obtained for each cell line, and the concentration that caused 50% cell growth inhibition (GI50) was calculated.

For another series, the system named is A375-C5. Kind of series: Sulforhodamine B (SRB) growth inhibition assay, melanoma cells. It counts as cell-based. The note with it: Homo sapiens, 48 h. The method, then:
as §1, §2, §3

Another series deals with HPAEpiC. Kind of series: SRB growth inhibition assay, non-tumor pulmonary alveolar epithelial cells. It counts as cell-based. The note with it: Homo sapiens, Epithelial cell, 48 h. The method, then:
as §1, §2, §3

In a further series the test system is MCF-7. The series is described as follows: SRB growth inhibition assay, breast adenocarcinoma cells. It counts as cell-based. The note with it: Homo sapiens, MCF7, 48 h. The method, then: as §1, §2, §3
The subject of series [1] is A375-C5, MCF-7 and HCT116 cell lines. The series is described as follows: SRB growth inhibition, range over the tumor cell lines of Table 1. In kind it is cell-based. To be noted: Homo sapiens; SAR discussion, values of Table 1. The method, then: Considering the antiproliferative effects on tumor cells of all the studied compounds (Table 1), some SAR considerations may be undertaken (Figure 2). […] Nevertheless, this effect is not observed for the flavone derivatives 15 and 16. […] Additionally, with the screening of the synthetic intermediates, some conclusions can also be inferred (Figure 2).
as §3

[2] abbreviates: SRB, 48 h, read-out: GI50 HCT116.

`CCCc1c(OCCNC(=O)c2cc(OC)c(OC)c(OC)c2)ccc(C(=O)/C=C/c2cc(OC)c(OC)c(OC)c2)c1O` [Compound 8, (E)-N-(2-(3-hydroxy-2-propyl-4-(3-(3,4,5-trimethoxyphenyl)acryloyl)phenoxy)ethyl)-3,4,5-trimethoxybenzamide] registered a melting point of 201 to 203 °C. In addition, the GI50 in the series with HCT116 (HCT116 p53+/+) (setting [2]) came out at 13.5 ± 2.46 µM. Also, the GI50 in the series with A375-C5 was over 75 µM. Besides, in the series on HPAEpiC, the GI50 was over 75 µM. Besides, in the series on MCF-7, the GI50 was over 75 µM.

Molecule `CCCc1c(OCC(=O)O)ccc(C(=O)/C=C/c2cc(OC)c(OC)c(OC)c2)c1O` [Compound 11, (E)-2-(3-hydroxy-2-propyl-4-(3-(3,4,5-trimethoxyphenyl)acryloyl)phenoxy)acetic acid] displayed a melting point of 200 to 202 °C. The GI50 in the series on HCT116 (HCT116 p53+/+) (setting [2]) was 26.9 ± 1.6 µM. In addition, in series [1], the GI50 was 26.9 to 58.3 µM. The GI50 in the series on A375-C5 amounted to 29.4 ± 1.05 µM. Besides, in the series on HPAEpiC, the GI50 was over 75 µM. Moreover, the GI50 with MCF-7 was found to be 58.3 ± 8.37 µM.

Molecule `CCCc1c(OCC(=O)O)ccc(C(=O)/C=C/c2cc(OC)c(OC)c(OC)c2)c1OCC(=O)O` [Compound 12, (E)-2,2’-((2-propyl-4-(3-(3,4,5-trimethoxyphenyl)acryloyl)-1,3-phenylene)bis(oxy))diacetic acid] registered a melting point of 212 to 214 °C. Further, the GI50 with HCT116 (HCT116 p53+/+) (setting [2]) was over 75 µM. Besides, the GI50 in series [1] is over 75 µM. In addition, the GI50 in the series with A375-C5 was over 75 µM. In the series with HPAEpiC, the GI50 is over 75 µM. In addition, in the series with MCF-7, the GI50 was over 75 µM.

Molecule `CCCc1c(OCCNC(=O)OC(C)(C)C)ccc2c(=O)cc(-c3cc(OC)c(OC)c(OC)c3)oc12` [Compound 14, tert-butyl (2-((4-oxo-8-propyl-2-(3,4,5-trimethoxyphenyl)-4H-chromen-7-yl)oxy)ethyl)carbamate] gave a melting point of 191 to 193 °C. Also, in the series with HCT116 (HCT116 p53+/+) (setting [2]), the GI50 is over 75 µM. In addition, in the series on A375-C5, the GI50 was over 75 µM. Also, in the series with HPAEpiC, the GI50 was over 75 µM. Moreover, the GI50 in the series with MCF-7 was over 75 µM.

With `CCCc1c(OCCNC(=O)/C=C/c2cc(OC)c(OC)c(OC)c2)ccc2c(=O)cc(-c3cc(OC)c(OC)c(OC)c3)oc12` [Compound 15, (E)-N-(2-((4-oxo-8-propyl-2-(3,4,5-trimethoxyphenyl)-4H-chromen-7-yl)oxy)ethyl)-3-(3,4,5-trimethoxyphenyl)acrylamide], the melting point lay within 198 to 199 °C. In addition, the GI50 in the series with HCT116 (HCT116 p53+/+) (setting [2]) is over 75 µM. In addition, the GI50 in the series with A375-C5 was over 75 µM. The GI50 with HPAEpiC was over 75 µM. Further, in the series on MCF-7, the GI50 was over 75 µM.

On to `CCCc1c(OCCNC(=O)c2cc(OC)c(OC)c(OC)c2)ccc2c(=O)cc(-c3cc(OC)c(OC)c(OC)c3)oc12` [Compound 16, 3,4,5-trimethoxy-N-(2-((4-oxo-8-propyl-2-(3,4,5-trimethoxyphenyl)-4H-chromen-7-yl)oxy)ethyl)benzamide], for which the melting point is 196 to 199 °C. Also, the GI50 with HCT116 (HCT116 p53+/+) (setting [2]) is 28.6 ± 5.05 µM. The GI50 with A375-C5 was over 75 µM. Besides, the GI50 in the series with HPAEpiC is over 75 µM. In addition, in the series on MCF-7, the GI50 is over 75 µM.

In the case of `CCCc1c(OCC(=O)Nc2cc(OC)c(OC)c(OC)c2)ccc2c(=O)cc(-c3cc(OC)c(OC)c(OC)c3)oc12` [Compound 17, 2-((4-oxo-8-Propyl-2-(3,4,5-trimethoxyphenyl)-4H-chromen-7-yl)oxy)-N-(3,4,5-trimethoxyphenyl)acetamide], the melting point fell in the range of 195 to 197 °C. The GI50 in the series with HCT116 (HCT116 p53+/+) (setting [2]) was found to be 24.7 ± 3.04 µM. For the same molecule, the GI50 in the series with A375-C5 was over 75 µM. The GI50 in the series on HPAEpiC was over 75 µM. For the same molecule, the GI50 in the series on MCF-7 is over 75 µM.

Turning to `CCCc1c(OCC(=O)O)ccc2c(=O)cc(-c3cc(OC)c(OC)c(OC)c3)oc12` [Compound 18, 2-((4-oxo-8-propyl-2-(3,4,5-trimethoxyphenyl)-4H-chromen-7-yl)oxy)acetic acid], the GI50 in the series with HCT116 (HCT116 p53+/+) (setting [2]), in the series on A375-C5, with HPAEpiC and with MCF-7 was over 75 µM in each case.

For the molecule `COc1cccc2c1C(=O)c1c(O)c3c(c(O)c1C2=O)C[C@@](O)(C(=O)CO)C[C@@H]3O[C@H]1C[C@H](N)[C@H](O)[C@H](C)O1` [Doxorubicin, reference compound], the GI50 was 0.085 ± 0.008 µM in the series on HCT116 (HCT116 p53+/+) (setting [2]), 0.028 ± 0.002 µM in the series with A375-C5, 0.091 ± 0.013 µM in the series with HPAEpiC and 0.083 ± 0.003 µM in the series with MCF-7.

As to `COc1cc([C@@H]2c3cc4c(cc3[C@@H](O[C@@H]3O[C@@H]5CO[C@@H](C)O[C@H]5[C@H](O)[C@H]3O)[C@H]3COC(=O)[C@H]23)OCO4)cc(OC)c1O` [Etoposide, reference compound], in the series with HCT116 (HCT116 p53+/+) (Table 2, 48 h, read-out: GI50 HCT116 p53+/+), the GI50 stood at 0.71 µM.
